How the values were obtained:
[1] = target: T1, OR1A1 (Homo sapiens, UniProt Q9P1Q5); experiment: Luciferase reporter gene assay, OR1A1-expressing HEK293 cells; format: cell-based; conditions: screen, muscone 100 μM, FIG. 1
T1 construct: expressed in transfected cells; host or cells: HEK293
T1 sequence (Q9P1Q5 1-309): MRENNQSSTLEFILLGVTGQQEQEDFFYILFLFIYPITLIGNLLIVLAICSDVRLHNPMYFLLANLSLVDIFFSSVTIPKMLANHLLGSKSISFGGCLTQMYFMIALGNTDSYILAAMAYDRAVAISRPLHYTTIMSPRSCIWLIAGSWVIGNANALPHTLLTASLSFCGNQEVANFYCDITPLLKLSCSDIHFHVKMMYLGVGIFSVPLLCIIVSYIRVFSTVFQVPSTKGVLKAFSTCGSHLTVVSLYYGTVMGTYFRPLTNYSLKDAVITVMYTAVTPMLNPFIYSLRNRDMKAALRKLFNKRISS
From the text: On the basis of sequence information registered in GenBank, genes respectively encoding 370 human olfactory receptors shown in Tables 1-1 and 1-2 and genes respectively encoding the human olfactory receptors OR5AN1, OR10G4 and OR9Q2 (respectively set forth in SEQ ID NOS: 1, 3 and 5) were cloned. Each of the genes was cloned by the PCR using human genomic DNA person (G1521: Promega) as a template. Each gene amplified by the PCR was incorporated into a pENTR vector (Invitrogen) in accordance with the instruction, and was recombined to NotI and AscI sites produced downstream from a Flag-Rho tag sequence on a pME18S vector by using NotI and AscI sites present on the pENTR vector.
In 1) of Example 1, HEK293 cells on which the 370 human olfactory receptors were respectively expressed were produced. A reaction solution having a composition shown in Table 2 was prepared and allowed to stand still in a clean bench for 15 minutes, and the resultant was added by 4.4 μL per well in a 384-well plate (BioCoat). Subsequently, the HEK293 cells (20×10^4 cells/cm^2) were seeded by 40 μL per well, and the resultant was cultured for 24 hours in an incubator kept at 37° C. and 5% CO2.
In 2) of Example 1 and Examples 2 and 3, HEK293 cells in which the human olfactory receptor OR5AN1, OR10G4, OR9Q2 or OR1A1 was expressed were produced. […]
The olfactory receptor expressed on the HEK293 cells increases the intracellular cAMP amount by activating adenylate cyclase in conjugation with intracellular Gαs. In the measurement of odor response in this study, luciferase reporter gene assay for monitoring the increase of the intracellular cAMP amount as a luminescence value derived from a firefly luciferase gene (fluc2P-CRE-hygro) was employed. […] Under each of various stimulation conditions, a value fLuc/hRluc obtained by dividing a firefly luciferase-derived luminescence value by a Renilla luciferase-derived luminescence value was calculated. […] A dose-response curve was analyzed using Graph Pad Prism. […]

[2] = test system: odor of p-methyl quinoline; experiment: Sensory test of cross-adaptation, target odor p-methyl quinoline; format: in vivo, human; conditions: panelists

C[C@@H]1CCCCCCCCCCCCC(=O)C1 [muscone, (R)-3-methyl-1-cyclopentadecanone] was tested, and the “responsiveness of OR1A1 compared with OR5AN1” value [1] was “weaker responsiveness” and the “cross-adaptation of p-methyl quinoline odor induced by test substance” value [2] was “did not induce the cross-adaptation”.

— patent publication US10738101B2, “Method for selecting odor-controlling substance” (Kao Corporation, priority 2015, dated 2020)
